The test system of one test is BMDM. As to the kind of experiment: Cytotoxicity on BMDM (MTT). The test is classed as cell-based, mouse. The conditions noted are these: Mus musculus, BMDM; 72 h, MTT; read-out: Healthy Cell Lines IC50, BMDM. As for the experimental part: Cytotoxicity was evaluated on human microvascular endothelial cells (HMEC-1, provided by the Centers for Disease Control, Atlanta, GA, USA), on immortalized mouse C57Bl/6 bone marrow derived macrophages (BMDM) from wild type lineage (generated in the laboratories of Drs. Douglas Golenbock and Kate Fitzgerald, University of Massachusetts, Worcester, MA, USA) and on a human acute monocytic leukaemia cell line (THP-1).
HMEC-1 were maintained in MCDB 131 medium (Invitrogen, Milan, Italy) supplemented with 10% fetal calf serum (HyClone), 10 ng/mL of epidermal growth factor, 1 μg/mL of hydrocortisone, 2 mM glutamine and 20 mM HEPES buffer, at 37 °C in 5% CO2. BMDM were maintained in DMEM (Euroclone) medium supplemented with 10% fetal bovine serum (HyClone, Celbio, Milan, Italy), 2 mM glutamine, and 25 mM of HEPES buffer solution (Euroclone). THP-1 were maintained in RPMI supplemented with 10% heat-inactivated FCS, 50 µM 2-mercaptoethanol, 10 µM sodium pyruvate, 20 mM HEPES, and 2 mM glutamine. In order to achieve differentiation into macrophages, cells were treated with 10 ng/mL phorbol myristate acetate (PMA) for 72 h.
For the cytotoxicity assay, cells were seeded in 96 well flat bottom tissue culture clusters (Costar, New York, NY, USA) at the following concentrations: HMEC 10^5 cell/mL, BMDM at 10^6 cell/mL, THP1 at 5 × 10^5 cell/mL. After 24 h, cells were treated with serial dilutions of test compounds in a final volume of 200 µL/well. Cell proliferation was evaluated after 72 h using the MTT assay.
The absorbances were measured with a microplate spectrophotometer (Synergy 4-Biotek) at a test wavelength of 550 nm and a reference wavelength of 650 nm. The results are expressed as IC50 as the concentration inhibiting 50% of cell growth. Each IC50 value is the mean and standard deviation of at least three separate experiments performed in duplicate.

The target in another test is LbHsp90 (Leishmania braziliensis, UniProt A4HL70). As to the kind of experiment: In vitro inhibition of the ATPase activity of LbHsp90 (Malachite Green Phosphate Assay). It counts as biochemical. The conditions noted are these: 7 μM LbHsp90, 27 °C, 60 min. An excerpt: To evaluate in vitro the modulatory activity of CE, PR and CE caboxamides, a full-length recombinant Hsp90 from L. braziliensis (LbHsp90) was produced in E. coli BL21 DE3 harboring the pET28a_LbHsp90 coding for the C-terminal His-tagged target chaperone (genbank number: XP_001567804.1, full sequence is reported in Appendix B). Pratically, the plasmid pET28a_LbHsp90, kindly donated by professor J.C. Borges, was transformed in E. coli BL21 DE3 using the TransformAid Bacterial Transformation Kit (Thermo Fisher, Waltham, MA, USA). Subsequently, the obtained transformants were grown overnight in LB medium containing 30 μg mL^−1 kanamycin (LBkan30) and then inoculated in 1 L SB kan30 medium (Yeast extract 30 g L^−1, Tryptone 20 g L^−1, NaCl 10 g L^−1) at 37 °C and 220 rpm. When the OD600 reached 0.5–1, gene expression was induced by the addition of 2 mL of 1 M IPTG solution in water and the culture was shifted at 30 °C for 24 h. After cell harvesting by centrifugation (5000 rpm for 30 min), the cell pellet was resuspended in 20 mL of wash buffer (20 mM HEPES buffer, pH 7.0, 500 mM NaCl, 20 mM imidazole) and recombinant E. coli BL21DE3 cells were disrupted by ultrasonication. LbHsp90 was subsequently purified using a Nickel Sepharose 6 Fast Flow agarose resin (Ni-NTA) (GE Healthcare, Milan, Italy) as follows. Soluble protein fraction was separated from cell debris by centrifugation (10,000 rpm for 30min) after cell ultrasonication, and clear lysates were incubated with the Ni-NTA resin for 90 min at 4 °C under mild shaking and loaded onto a glass column (10 × 110 mm). The resin was then washed with 10mL of wash buffer and His-tagged LbHsp90 was eluted using a 3 step gradient (10 mL washing buffer containing 100, 200, and 300 mM imidazole, respectively) and dialyzed against 20 mM HEPES buffer (20 mM, pH 7.5), at 4 °C overnight. The protein content was measured using the Bio-Rad Protein Assay (Hercules, CA, USA) according to the Bradford method and the protein purity was verified by SDS-PAGE analysis (10% T, 2.6% C). It is worth noting that to avoid interferences with the assays described below, proteins were purified and conserved in HEPES buffer (20 mM, pH 7.5) in place of the standard PB-buffer. Reported data are the mean of two experiments run in duplicate.
LbHsp90, sequence (A4HL70 entry or part of it): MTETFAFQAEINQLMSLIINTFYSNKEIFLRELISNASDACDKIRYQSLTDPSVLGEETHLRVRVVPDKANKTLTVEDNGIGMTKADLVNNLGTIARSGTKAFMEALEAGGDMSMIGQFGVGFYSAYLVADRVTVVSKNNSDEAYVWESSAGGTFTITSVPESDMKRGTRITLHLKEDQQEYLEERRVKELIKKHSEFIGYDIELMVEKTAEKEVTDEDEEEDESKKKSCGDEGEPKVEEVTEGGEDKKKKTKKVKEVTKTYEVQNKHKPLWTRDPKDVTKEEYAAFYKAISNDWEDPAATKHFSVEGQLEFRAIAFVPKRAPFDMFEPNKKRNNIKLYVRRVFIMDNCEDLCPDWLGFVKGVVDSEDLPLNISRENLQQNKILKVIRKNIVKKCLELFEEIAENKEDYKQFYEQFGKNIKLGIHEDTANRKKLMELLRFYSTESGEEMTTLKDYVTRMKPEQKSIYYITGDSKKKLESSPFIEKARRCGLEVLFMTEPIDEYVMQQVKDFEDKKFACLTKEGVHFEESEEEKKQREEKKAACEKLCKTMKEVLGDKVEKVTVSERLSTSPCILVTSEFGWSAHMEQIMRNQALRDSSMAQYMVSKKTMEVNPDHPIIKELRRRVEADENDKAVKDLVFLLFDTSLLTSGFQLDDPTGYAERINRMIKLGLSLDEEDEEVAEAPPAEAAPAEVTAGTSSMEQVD
Modulatory activity toward the ATPase cycle of LbHsp90 was determined using a Malachite Green Phosphate Assay Kit (Catalog Number MAK307, Sigma-Aldrich®, St. Louis, MO, USA). Analyses were run in a 96-well plate directly following the quantitative formation of a green complex between Malachite Green, molybdate, and free orthophosphate (Pi) produced by ATP hydrolysis catalyzed by the chaperone. Color formation from the reaction was measured on a plate reader at 620 nm. Briefly, the IC50 of CE and its derivatives were extrapolated from a set of dose-response curves obtained by calculating the amount of Pi produced by LbHsp90 in the presence of different compounds concentrations.
Reactions were run in HEPES buffer (20 mM, pH 7.5) containing 3 mM MgCl2 and 50 mM KCl in the presence of different compounds concentrations ([…]), LbHsp90 (7 μM) and ATP (25 mM) at 27 °C for 60 min. OD620 was measured 30 min after Malachite Green reactants addition.
LbHsp90 native activity was measured by conducting the reaction in the presence of just LbHsp90 and ATP and extrapolating the concentration of Pi obtained.
Three sets of control experiments, (1) ATP background hydrolysis, (2) compounds-related interferences and (3) protein-related background coloration, were run as follow: • (1) ATP (25 mM) incubated at 27 °C for 60 min • (2) Compounds (different concentrations) incubated with ATP (25 mM) at 27 °C for 60 min • (3) LbHsp90 (7 μM) at 27 °C for 60 min
The in vitro performances of CE, PR and the carboxamides 1–11 (Figure 4) as potential inhibitors of the Leishmania braziliensis Hsp90 were investigated using Sigma-Aldrich® Malachite Green Phosphate Assay Kit. […]

A word on the IC50: it is the point on the concentration scale where inhibition reaches its midpoint. On to `CC1=C(O)C(=O)C=C2C1=CC=C1[C@@]2(C)CC[C@@]2(C)[C@@H]3C[C@](C)(C(=O)NCCN4CCCC4)CC[C@]3(C)CC[C@]12C` [compound 3, (2R,4aS,6aS,12bR,14aS,14bR)-10-hydroxy-2,4a,6a,9,12b,14a-hexamethyl-11-oxo-N-(2-(pyrrolidin-1-yl)ethyl)-1,2,3,4,4a,5,6,6a,11,12b,13,14,14a,14b-tetradecahydropicene-2-carboxamide], for which the values for the half-maximal inhibitory concentration (IC50) in the test on BMDM and against LbHsp90 were 4.53 ± 0.05 µM and 81 ± 1 µM, respectively.
Regarding `CC1=C(O)C(=O)C=C2C1=CC=C1[C@@]2(C)CC[C@@]2(C)[C@@H]3C[C@](C)(C(=O)NCC45CCCN4CCC5)CC[C@]3(C)CC[C@]12C` [compound 5, (2R,4aS,6aS,12bR,14aS,14bR)-N-((hexahydro-1H-pyrrolizin-7a-yl)methyl)-10-hydroxy-2,4a,6a,9,12b,14a-hexamethyl-11-oxo-1,2,3,4,4a,5,6,6a,11,12b,13,14,14a,14b-tetradecahydropicene-2-carboxamide], the IC50 in the test on BMDM was determined as 2.68 ± 0.81 µM; at LbHsp90, 20 ± 2 µM.
`CC1=C(O)C(=O)C=C2C1=CC=C1[C@@]2(C)CC[C@@]2(C)[C@@H]3C[C@](C)(C(=O)NCCNc4ccnc5cc(Cl)ccc45)CC[C@]3(C)CC[C@]12C` [compound 6, (2R,4aS,6aS,12bR,14aS,14bR)-N-(2-((7-chloroquinolin-4-yl)amino)ethyl)-10-hydroxy-2,4a,6a,9,12b,14a-hexamethyl-11-oxo-1,2,3,4,4a,5,6,6a,11,12b,13,14,14a,14b-tetradecahydropicene-2-carboxamide]: the IC50 in the test with BMDM amounted to 2.15 ± 0.02 µM; against LbHsp90, 65 ± 4 µM.
For `CC1=C(O)C(=O)C=C2C1=CC=C1[C@@]2(C)CC[C@@]2(C)[C@@H]3C[C@](C)(C(=O)O)CC[C@]3(C)CC[C@]12C` [CE, celastrol], in that order: 1.76 ± 0.43 µM and 201 ± 10 µM.
The like results for `CC1=C(O)C(=O)C=C2C1=CC=C1[C@@]2(C)CC[C@@]2(C)[C@@H]3C[C@](C)(C(=O)NCCN4CCCCC4)CC[C@]3(C)CC[C@]12C` [compound 1, (2R,4aS,6aS,12bR,14aS,14bR)-10-hydroxy-2,4a,6a,9,12b,14a-hexamethyl-11-oxo-N-(2-(piperidin-1-yl)ethyl)-1,2,3,4,4a,5,6,6a,11,12b,13,14,14a,14b-tetradecahydropicene-2-carboxamide] were, in that order, 3.61 ± 0.38 µM and 83 ± 2 µM.
The like results for `CC1=C(O)C(=O)C=C2C1=CC=C1[C@@]2(C)CC[C@@]2(C)[C@@H]3C[C@](C)(C(=O)NCCSS(C)(=O)=O)CC[C@]3(C)CC[C@]12C` [compound 9, S-(2-((2R,4aS,6aS,12bR,14aS,14bR)-10-hydroxy-2,4a,6a,9,12b,14a-hexamethyl-11-oxo-1,2,3,4,4a,5,6,6a,11,12b,13,14,14a,14b-tetradecahydropicene-2-carboxamido)ethyl) methanesulfonothioate] were, in that order, 13 ± 2.48 µM and over 150 µM.

These data come from PMC7824787, “Design, Synthesis and In Vitro Investigation of Novel Basic Celastrol Carboxamides as Bio-Inspired Leishmanicidal Agents Endowed with Inhibitory Activity against Leishmania Hsp90” (Biomolecules, 2021).
